Assay results as given in article PMC4265264 (Hepatology (Baltimore, Md.), 2014).

What was measured:
HBV particles = assay: Pretreatment of HBV particles with compounds, then infection of HepaRG cells; format: cell-based, hepatitis B virus; details: 30 min 37°C, compound removed by ultrafiltration, HBs at 12 days
HCVpp = assay: HCV pseudoparticle; format: cell-based, hepatitis C virus; details: Huh-7.5.1 cells pretreated 1 h, HCVpp 4 h, read at 72 h
[1] = tested on: calcineurin/NF-AT pathway; assay: Calcineurin/NF-AT reporter assay in Jurkat cells; format: cell-based, human; details: pNF-AT-luc, PMA and ionomycin
HCV = details: read-out: anti-HCV replication activity (IC50); cited from earlier work
HBV [2] = assay: HBV replication in HepAD38 cells, southern blot of core particle HBV DNA; format: cell-based, hepatitis B virus; details: lamivudine 1 μM, 6 days
HBV [3] = assay: HBV attachment and internalization assay in HepaRG cells; format: cell-based, hepatitis B virus; details: CsA 4 μM
HBV [4] = assay: HBV infection of HepG2 cells overexpressing NTCP; format: cell-based, hepatitis B virus; details: pretreated 2 h, HBV 16 h
HBV [5] = assay: HBV infection; format: cell-based, hepatitis B virus; details: HepaRG
HBV [6] = assay: HBV infection of primary human hepatocytes; format: cell-based, hepatitis B virus; details: CsA 4 μM, HBs in medium or HBV DNA in cells at 12 days

heparin
HBV infectivity after preincubation of HBV with compound (HBV particles): antagonizing effect
HCV entry (HCVpp luciferase activity) (HCVpp): inhibition of HCV entry

CO/C1=C\C(C)=C\[C@@H](C)[C@@H](O)[C@@H](C)C/C(C)=C/C=C/[C@H](OC)[C@@H]([C@@H](C)[C@@H](O)[C@H](C)[C@@]2(O)C[C@@H](O)[C@H](C)[C@@H](C(C)C)O2)OC1=O [bafilomycin A1]
HCV entry (HCVpp luciferase activity) (HCVpp): inhibition of HCV entry

C=CC[C@@H]1/C=C(\C)C[C@H](C)C[C@H](OC)[C@H]2O[C@@](O)(C(=O)C(=O)N3CCCC[C@H]3C(=O)O[C@H](/C(C)=C/[C@@H]3CC[C@@H](O)[C@H](OC)C3)[C@H](C)[C@@H](O)CC1=O)[C@H](C)C[C@@H]2OC [FK506]
Calcineurin (CN)/NF-AT pathway inhibition [1]: can inhibit CN

Alisporivir
IC50 (HCV): 220 nM

Nc1ccn([C@@H]2CS[C@H](CO)O2)c(=O)n1 [lamivudine]
HBV DNA in HepAD38 cells (HBV [2]): drastically decreased HBV DNAs

cyclosporin A [CsA]
Attached HBV DNA (attachment assay) (HBV [3]; 4°C 3 h, real-time PCR): slightly reduced the amount of attached HBV DNA, although the effect was not statistically significant
Internalized HBV DNA (internalization assay) (HBV [3]; 37°C 16 h after attachment, trypsinized): significant reduction of HBV DNA
HBs and HBe secretion of HBV-infected HepG2-NTCP cells (HBV [4]): reduced HBs and HBe secretion
Calcineurin (CN)/NF-AT pathway inhibition [1]: can inhibit CN
HBV infectivity after preincubation of HBV with compound (HBV particles): did not affect HBV infectivity
HCV entry (HCVpp luciferase activity) (HCVpp): did not affect the entry of HCV
HBc protein, HBV DNA and cccDNA in the cells and HBe in the medium (HBV [5]; CsA 4 μM, 12 days postinfection): significantly decreased
HBs and HBe production, compound added during HBV infection (time of addition) (HBV [5]; CsA 4 μM, Fig. 2E-b): decreased HBs and HBe production
HBs and HBe production, compound added after HBV infection (time of addition) (HBV [5]; CsA 4 μM, Fig. 2E-c): did not have an anti‐HBV effect
Dose-response of HBs (and HBe) secretion (HBV [5]; protocol Fig. 1A, CsA 0.5-4 μM, analogs 0.25-4 μM): decreased HBs and HBe secreted from the infected cells
Infection of different HBV genotypes into PHHs (HBV [6]): reduced the infection of HBV genotype A, C, or D

PSC833
Calcineurin (CN)/NF-AT pathway inhibition [1]: inactive for CN inhibition
